This note sets out measurements from patent publication US8492352B2, “Polysaccharides with antithrombotic activity, including a covalent bond and an amino chain” (Sanofi, priority 2008, dated 2013).

The target in the test is coagulation factor Xa, in the presence of antithrombin (Homo sapiens, UniProt P01008). In words: in vitro model of inhibition of coagulation factor Xa in the presence of antithrombin (anti-factor Xa activity). The format is biochemical. As to conditions: method per Herbert et al., Blood 1998, read-out: IC50 (dose for 50% inhibition), inhibition of coagulation factor Xa (converted). The source says: The pharmacological activity of these products was in particular studied in an in vitro model of inhibition of coagulation factor Xa, in the presence of antithrombin (anti-factor Xa activity dependent on the presence of antithrombin), as described by J.-M. Herbert et al., Blood, 1998, 91, 4197-4205. In this model, the antithrombotic properties of the compounds according to the invention are confirmed.
coagulation factor Xa, in the presence of antithrombin, sequence (P01008 33-464): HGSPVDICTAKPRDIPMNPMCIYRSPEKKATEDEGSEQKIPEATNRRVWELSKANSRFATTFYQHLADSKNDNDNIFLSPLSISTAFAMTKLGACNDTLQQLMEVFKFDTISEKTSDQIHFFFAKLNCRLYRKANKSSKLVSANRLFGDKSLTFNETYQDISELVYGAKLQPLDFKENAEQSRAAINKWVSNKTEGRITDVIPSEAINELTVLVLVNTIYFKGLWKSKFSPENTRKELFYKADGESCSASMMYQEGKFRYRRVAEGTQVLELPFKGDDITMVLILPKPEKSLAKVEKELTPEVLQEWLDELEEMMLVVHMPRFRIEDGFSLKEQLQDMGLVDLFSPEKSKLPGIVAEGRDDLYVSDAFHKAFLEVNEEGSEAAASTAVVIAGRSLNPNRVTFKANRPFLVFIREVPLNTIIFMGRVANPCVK

Counter-ions that a name gives are not always drawn.

Broadly, the IC50 is the concentration needed to halve the response being measured.

`COC1OC(COS(=O)(=O)O)C(OC2OC(C(=O)O)C(OC3OC(COS(=O)(=O)O)C(OC4OC(C(=O)O)C(OC5OC(COS(=O)(=O)O)C(OC)C(OC)C5NC(=O)CCCCCN)C(OC)C4OC)C(OS(=O)(=O)O)C3OS(=O)(=O)O)C(OC)C2OC)C(OS(=O)(=O)O)C1OS(=O)(=O)O` [compound 1, Methyl(2-[N-(6-aminohexanoyl)]-2-deoxy-3,4-di-O-methyl-6-O-sulfonato-α-D-glucopyranosyl)-(1→4)-(2,3-di-O-methyl-β-D-glucopyranosyluronic acid)-(1→4)-(2,3,6-tri-O-sulfonato-α-D-glucopyranosyl)-(1→4)-(2,3-di-O-methyl-α-L-idopyranosyluronic acid)-(1→4)-2,3,6-tri-O-sulfonato-α-D-glucopyranoside, sodium salt]: the IC50 was 10.4 nM.
